# Earlier results as cited in patent US20210315248A1, “SYSTEM AND METHOD FOR HOVENIA DULCIS EXTRACTION” (82 Labs Inc., priority 2020, published 2021).
# Legend:
# [1] = design: key: ability to form inclusion complexes, as indicated by a “+”; conditions: guest molecule with γ-cyclodextrin
# [2] = design: key: ability to form inclusion complexes, as indicated by a “+”; conditions: guest molecule with β-cyclodextrin
# [3] = design: key: ability to form inclusion complexes, as indicated by a “+”; conditions: guest molecule with α-cyclodextrin
# [4] = not given; remark: listed apart in the source
compound,measurement,setting,value
c1ccc2cc3ccccc3cc2c1 [Anthracene],ability to form inclusion complexes with γ-CD,[1],+
CCCC(=O)O [Butyric acid],ability to form inclusion complexes with β-CD,[2],+
same,ability to form inclusion complexes with α-CD,[3],+
C1CCCCC1 [Cyclohexane],ability to form inclusion complexes with β-CD,[2],+
same,ability to form inclusion complexes with α-CD,[3],+
same,ability to form inclusion complexes with γ-CD,[1],+
"O=C1c2c(O)cc(O)cc2O[C@H](c2cc(O)c(O)c(O)c2)[C@H]1O [DHM, (2R,3R)-3,5,7-trihydroxy-2-(3,4,5-trihydroxyphenyl)-2,3-dihydrochromen-4-one]",permeability Peff,,(1.84±0.37)×10^−6 cm/s
c1ccc2ccccc2c1 [Naphthalene],ability to form inclusion complexes with β-CD,[2],+
same,ability to form inclusion complexes with γ-CD,[1],+
CCC(=O)O [Propionic acid],ability to form inclusion complexes with α-CD,[3],+
[Xe] [Xenon],ability to form inclusion complexes with α-CD,[3],+
"OC[C@H]1O[C@@H]2O[C@H]3[C@H](O)[C@@H](O)[C@@H](O[C@H]4[C@H](O)[C@@H](O)[C@@H](O[C@H]5[C@H](O)[C@@H](O)[C@@H](O[C@H]6[C@H](O)[C@@H](O)[C@@H](O[C@H]7[C@H](O)[C@@H](O)[C@@H](O[C@H]1[C@H](O)[C@H]2O)O[C@@H]7CO)O[C@@H]6CO)O[C@@H]5CO)O[C@@H]4CO)O[C@@H]3CO [α-Cyclodextrin, α-cyclodextrin]",pKa value (25° C.),[4],12.331
